Measured values from ChEMBL document CHEMBL3867469, “Discovery of phenoxyindazoles and phenylthioindazoles as RORγ inverse agonists” (Bioorg Med Chem Lett, 2016).

Legend:
[1] = molecular target: T1, Nuclear receptor ROR-gamma (Homo sapiens, UniProt P51449); test: Inverse agonist activity at RORgamma in human CD4+ T cells assessed as inhibition of IL-17A release after 4 days by HTRF assay; type: cell-based, T-cell
T1 sequence (P51449 whole entry): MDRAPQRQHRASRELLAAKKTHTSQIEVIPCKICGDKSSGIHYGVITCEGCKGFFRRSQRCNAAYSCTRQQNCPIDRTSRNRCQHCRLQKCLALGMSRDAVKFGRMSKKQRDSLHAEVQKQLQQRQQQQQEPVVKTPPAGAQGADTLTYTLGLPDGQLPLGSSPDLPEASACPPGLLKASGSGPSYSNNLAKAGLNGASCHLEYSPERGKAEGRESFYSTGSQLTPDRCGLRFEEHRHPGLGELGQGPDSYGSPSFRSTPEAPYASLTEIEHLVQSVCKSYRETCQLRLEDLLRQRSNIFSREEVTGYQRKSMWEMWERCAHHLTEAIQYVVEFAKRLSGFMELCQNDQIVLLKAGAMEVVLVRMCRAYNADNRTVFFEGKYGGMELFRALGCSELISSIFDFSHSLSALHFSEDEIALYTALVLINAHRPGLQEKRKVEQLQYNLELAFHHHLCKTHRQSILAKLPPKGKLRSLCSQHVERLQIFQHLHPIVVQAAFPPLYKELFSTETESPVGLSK

[2] = molecular target: T1, Nuclear receptor ROR-gamma
Description: Inverse agonist activity at GAL4 DBD-fused RORgammat LBD (unknown origin) expressed in HG5LN cells after 18 hrs by luciferase reporter gene assay

[3] = molecular target: T2, Retinoic acid receptor gamma (Homo sapiens, UniProt P13631)
T2 sequence (P13631 whole entry): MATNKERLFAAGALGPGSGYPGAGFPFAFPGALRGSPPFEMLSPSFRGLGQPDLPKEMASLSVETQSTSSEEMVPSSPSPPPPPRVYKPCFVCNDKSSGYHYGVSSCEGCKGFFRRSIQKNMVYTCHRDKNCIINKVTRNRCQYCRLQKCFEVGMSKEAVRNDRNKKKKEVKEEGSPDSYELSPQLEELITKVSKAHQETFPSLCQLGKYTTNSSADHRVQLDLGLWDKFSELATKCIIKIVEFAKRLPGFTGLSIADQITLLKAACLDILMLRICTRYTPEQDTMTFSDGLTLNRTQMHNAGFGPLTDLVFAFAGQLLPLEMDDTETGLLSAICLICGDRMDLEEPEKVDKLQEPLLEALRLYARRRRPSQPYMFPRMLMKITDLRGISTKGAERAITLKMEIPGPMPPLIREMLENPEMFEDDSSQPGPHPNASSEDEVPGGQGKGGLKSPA
Description: Inverse agonist activity at GAL4 DBD-fused RARgamma LBD (unknown origin) expressed in human HG5LN cells after 18 hrs by luciferase reporter gene assay

[4] = molecular target: T3, Nuclear receptor ROR-alpha (Homo sapiens, UniProt P35398)
T3 sequence (P35398 whole entry): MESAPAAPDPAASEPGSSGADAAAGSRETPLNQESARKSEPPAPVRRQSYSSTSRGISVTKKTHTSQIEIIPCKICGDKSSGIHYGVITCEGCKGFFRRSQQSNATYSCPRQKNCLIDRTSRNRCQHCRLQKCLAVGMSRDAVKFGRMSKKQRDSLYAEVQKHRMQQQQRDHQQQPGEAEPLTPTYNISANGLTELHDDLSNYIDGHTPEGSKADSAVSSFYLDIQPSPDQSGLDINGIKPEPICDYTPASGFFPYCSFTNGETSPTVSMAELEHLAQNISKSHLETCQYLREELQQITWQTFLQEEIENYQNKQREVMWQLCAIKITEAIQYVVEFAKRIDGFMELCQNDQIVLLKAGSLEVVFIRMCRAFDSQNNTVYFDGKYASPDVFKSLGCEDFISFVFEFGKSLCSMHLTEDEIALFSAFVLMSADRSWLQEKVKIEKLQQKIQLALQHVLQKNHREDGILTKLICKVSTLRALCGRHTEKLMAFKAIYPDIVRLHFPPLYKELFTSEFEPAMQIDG
Description: Inverse agonist activity at GAL4 DBD-fused RORalpha LBD (unknown origin) expressed in HG5LN cells after 18 hrs by luciferase reporter gene assay

[5] = rat, microsomes
Description: Stability in rat microsomes

[6] = physchem; conditions: buffer, pH 6.5
[7] = in vitro; conditions: human, plasma
Description: Fraction unbound in human plasma at 5 uM after 4 hrs by equilibrium dialysis based LC-MS/MS analysis

[8] = in vitro; conditions: human, neonatal keratinocytes
Description: Photocytotoxicity against human neonatal keratinocytes assessed as decrease in cell viability by measuring ratio of IC50 in presence of UV to IC50 in absence of UV after 30 mins by neutral red dye based assay

[9] = in vitro; conditions: human, hepatocytes
[10] = Photocytotoxicity against human neonatal keratinocytes assessed as decrease in cell viability preincubated for 30 mins followed by 5 J/cm2 UV light irradiation for 15 mins measured after 24 hrs by neutral red dye based assay; type: toxicity; conditions: neonatal keratinocyte

SMILES: Cc1cccc(Cl)c1Oc1nn(-c2ccc(C(=O)O)cc2)c2ccc(C(=O)N(C)C)cc12
- IC50 [1]: 0.15 µM
- IC50 [2]: 0.12 µM
- IC50 [3]: > 10 µM
- IC50 [4]: > 10 µM
- Stability [5]: Unstable
- logD [6]: 1.5
- fraction unbound at 4 h, 5 µM [7]: 0.024
- selectivity ratio at 0.5 h [8]: 36
- hepatocyte CLint at […], 1 µM [9]: 54 µL/min/1e6 cells

SMILES: CN(C)C(=O)c1ccc2c(c1)c(Sc1cccc(Cl)c1Cl)nn2-c1ccc(C(=O)O)cc1
- Activity [10]: Toxic
- IC50 [2]: 5.9 µM
- IC50 [3]: > 10 µM
- logD [6]: 2.1

SMILES: CN(C)C(=O)c1ccc2c(c1)c(Sc1ccc(Cl)cc1Cl)nn2-c1ccc(C(=O)O)cc1
- Activity [10]: Toxic
- IC50 [2]: > 10 µM
- IC50 [3]: > 10 µM
- logD [6]: 2.2
